The source of these data is PMC4251066, “Polyyne Hybrid Compounds from Notopterygium incisum with Peroxisome Proliferator-Activated Receptor Gamma Agonistic Effects” (Journal of Natural Products, 2014).

Each structure is given as a SMILES string.

For data set [1], the target named is T1, human PPARγ (Homo sapiens, UniProt P37231).
T1 sequence (P37231 1-477 isoform P37231-2): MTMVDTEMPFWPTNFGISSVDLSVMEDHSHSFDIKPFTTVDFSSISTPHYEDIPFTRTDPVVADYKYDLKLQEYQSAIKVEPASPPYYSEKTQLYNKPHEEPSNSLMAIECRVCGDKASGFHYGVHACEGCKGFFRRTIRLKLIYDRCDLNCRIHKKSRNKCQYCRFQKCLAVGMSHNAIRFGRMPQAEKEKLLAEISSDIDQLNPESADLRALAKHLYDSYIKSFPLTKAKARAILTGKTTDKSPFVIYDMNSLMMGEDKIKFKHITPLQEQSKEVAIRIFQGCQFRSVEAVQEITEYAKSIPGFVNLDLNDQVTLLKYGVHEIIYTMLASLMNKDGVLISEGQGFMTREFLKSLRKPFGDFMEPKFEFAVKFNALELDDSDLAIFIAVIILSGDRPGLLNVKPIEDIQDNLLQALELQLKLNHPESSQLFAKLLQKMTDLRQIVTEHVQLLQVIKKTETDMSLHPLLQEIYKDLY
The data set is described as follows: PPARγ luciferase reporter gene transactivation in HEK-293 cells. As to conditions: PPARγ-driven luciferase reporter assay, 18 h. (In general: In a reporter assay the amount or activity of a reporter protein is the signal.)
Protocol: For evaluation of PPARγ activation the test compounds were first dissolved in DMSO, divided into aliquots, and frozen at −20 °C until used. In all experiments, DMSO was applied as solvent control, and the final concentration of DMSO was always kept at ≤0.1%. The PPAR luciferase reporter plasmid (tk-PPREx3-luc) was a kind gift from Prof. Ronald M. Evans (Howard Hughes Medical Institute, La Jolla, CA, USA), the plasmid encoding enhanced green fluorescent protein (pEGFP-N1) was supplied by Clontech (Mountain View, CA, USA), and the plasmid encoding human PPARγ (pSG5-PL-hPPAR-γ1) was kindly supplied by Prof. Walter Wahli and Prof. Beatrice Desvergne (Center for Integrative Genomics, University of Lausanne, Switzerland).
The PPARγ luciferase reporter gene assay was performed as previously described.[27] Briefly, HEK-293 cells (ATCC, Manassas, VA, USA) were grown in DMEM with 2 mM glutamine, 10% FBS, 100 U/mL benzylpenicillin, and 100 μg/mL streptomycin. Cells were grown in 10 cm dishes (6 × 10^6 cells/dish) for 18 h and then transfected by the calcium phosphate precipitation method with 4 μg of plasmid encoding human PPARγ (pSG5-PL-hPPAR-γ1), 4 μg of reporter plasmid (tk-PPREx3-luc), and 2 μg of pEGFP-N1 as control for internal normalization.[28] After 6 h, the cells were transferred to 96-well plates (5 × 10^4 cells/well) in DMEM without phenol red supplemented with charcoal-stripped FBS, glutamine, and antibiotics. The cells were treated with different concentrations of the indicated compounds and incubated for 18 h. Cells were then lysed, and the luminescence of the firefly luciferase and the fluorescence of EGFP were quantified with a GeniosPro microplate reader (Tecan, Grödig, Austria). The luminescence was finally normalized to the EGFP-derived fluorescence from each well to account for differences in transfection efficiency or cell number.
Nonlinear regression (with sigmoidal dose response) was used to calculate the EC50 values and maximal fold activation.

In data set [2] the test system is NO production in LPS/IFNγ-stimulated RAW 264.7 macrophages. The data set is described as follows: Inhibition of NO production in stimulated RAW 264.7 macrophages (Griess assay). Type of data set: cell-based. Particulars: Mus musculus, RAW264.7, 16 h incubation. Here is the method:
RAW 264.7 macrophages were stimulated with lipopolysaccharides (LPS) and interferon-γ (IFNγ) for induction of iNOS gene expression. The effects on NO production were determined by photometric quantification of nitrite accumulation in cell culture supernatants using the Griess assay compared with a sodium nitrite standard curve after 16 h of incubation with the respective sample as described by Baer et al. with slight modifications.[29],[30] Activity is referred to nitrite accumulation of cells treated with LPS/IFN-γ/DMSO (final concentration of 0.1% DMSO serves as solvent control). Test compounds were first dissolved in DMSO and then diluted with PBS to obtain respective concentrations. L-NMMA (N-monomethyl-L-arginine), a known nonselective inhibitor of all NOS isoforms, was used as a positive control. IC50 determination was performed in eight concentrations, each in at least three independent experiments, every time in duplicate.
IC50 values for effects on NO production were calculated with the SigmaPlot program package employing the four-parameter logistic regression model. Statistical differences were evaluated using one-way ANOVA. Differences with a p value < 0.05 were considered significant.
Background: Griess reagent forms a coloured azo dye with nitrite.

Data set [3] is described as follows: Stability on exposure to heat or sunlight (observed color change). Type of data set: physicochemical. Particulars: elevated temperatures (45 °C) or direct sunlight at ambient temperature for an extended time; visible color change.

Regarding `C=C[C@H]1OCc2cc3cc(OC)c(O)cc3c(C#C[C@@H](O)/C=C\CCCCCCC)c21` [compound 10, Notoincisol B], in data set [1], a half-maximal response (EC50) required 1.7 µM and the maximal fold activation is listed as 2.3.

In data set [2], `C=C[C@@H](O)C#CC#C[C@H](/C=C\CCCCCCC)OC(=O)/C=C/c1ccc(O)c(OC)c1` [compound 9, Notoincisol A] had an IC50 of 14.6 ± 0.7 µM. In data set [1], this compound had an EC50 of 2.3 µM. For the same compound, the stability entry in data set [3] is “unstable”.

In data set [1], `C=C[C@H](C#CC#C[C@@H](O)/C=C\CCCCCCC)O[C@]1(C)CCC[C@]2(C)CC[C@@H](C(C)(C)O)C[C@H]21` [compound 1, Notoether A] showed an EC50 of 1.9 µM and a maximal fold activation of 1.6.

In data set [1], `C=C[C@H](C#CC#C[C@@H](O)/C=C\CCCCCCC)O[C@]1(C)CC[C@@H](O)[C@]2(C)CC[C@@H](C(C)C)[C@@H](O)[C@H]21` [compound 3, Notoether C] registered an EC50 of 2 µM and a maximal fold activation of 1.6.

In data set [1], `C=C[C@@H](O)C#CC#C[C@H](/C=C\CCCCCCC)O[C@]1(C)CCC[C@]2(C)CC[C@@H](C(C)(C)O)C[C@H]21` [compound 2, Notoether B] returned an EC50 of 1.7 µM and a maximal fold activation of 2.0.

The EC50 is the concentration at which the effect is half-maximal. A higher EC50 goes with lower potency in that assay. One may read the IC50 as the concentration at which inhibition is half-maximal. Low values mean greater potency in that assay, high ones weaker potency in that assay.
